# According to patent US9890429B2, “Compositions, kits, and methods for the identification, assessment, prevention, and therapy of cancer” (Dana-Farber Cancer Institute, Inc., priority 2012, dated 2018):
# Experiments:
# DLBCL cell lines [1] = assay: Cell cycle analysis (Hoechst 33342, flow cytometry); format: cell-based, human; details: 72 hr treatment
# Protocol: Cells were re-suspended in 1 ml of growth medium supplemented with 10 μg/ml Hoechst 33342 (Molecular Probes, Invitrogen) as final concentration. After 60 min at 37° C. in the dark. Analysis was performed on a FACSCAriallu cytometer (BD Biosciences) using the UV laser 350 nm with 20 mW. The cell cycle was plotted as histogram after excluding doublets.
# Cell cycle analysis was performed at 72 h using Hoechst 33342 (Supplemental Methods) and a FACSCAriaIIu cytometer (BD Biosciences) with a UV laser at 350 nm with 20 mW.
# DLBCL cell lines [2] = assay: Apoptosis (Annexin V/7-AAD staining, subG1 peaks); format: cell-based, human; details: subG1 peaks and Annexin V/7-AAD staining, 72 hr treatment
# Protocol: Cellular apoptosis was analyzed with an APC AnnexinV/7ADD Apoptosis Detection kit (BD Pharmingen). AnnexinV/7AAD plots and cell cycle graphics were generated using FlowJo software V7.6.1 for Windows (Tree Star).
# DLBCL cell lines [3] = assay: Proliferation of DLBCL cell lines after chemical CDK inhibition (alamarBlue assay); format: cell-based, human
# Protocol: The identities of the DLBCL cell lines used in this study were confirmed via STR profiling (PowerPlex®1.2 system [Promega]) and the online verification services of the cell banks JCRB and DSMZ (available on the World Wide Web at cellbank.nibio.go.jp/cellbank_e.html and dsmz.de/STRanalysis). All DLBCL cell lines were cultured at 37° C. in 5% C02. SU-DHL-6, SU-DHL-7, DB and Toledo were propagated in RPMI; OCI-Ly3, OCI-Ly18 and OCI-Ly19 were grown in IMDM. HEK293T cells for lentiviral production were cultured in DMEM. All media were supplemented with 10 mM HEPES buffer, 2 mM L-glutamine, 50 U/mL penicillin, 50 U/mL streptomycin and 10% heat-inactivated fetal calf serum (Invitrogen). To ensure that cells were in logarithmic growth phase, cells were diluted to 200,000 cells/ml 48 h prior to any experiment.
# The pan-CDK inhibitor, flavopiridol (Selleck Chemicals, Houston, USA), was suspended in DMSO (10 mM stock solution) and stored at −20° C. until use. Following treatment, proliferation of DLBCL cell lines was assessed with the alamarBlue assay (Invitrogen, Carlsbad, Calif.).
# [4] = test system: luciferized mCherry+ (Toledo, Ly4 or Ly1) DLBCL cells xenotransplanted in NSG mice; assay: In vivo efficacy in DLBCL xenografts (bioluminescence, flow cytometry, immunohistochemistry); design: species or system mouse; details: multiple DLBCL xenograft models in NSG mice, 7.5 mg/kg daily IP vs vehicle
# [5] = test system: RB1 phosphorylation (pS780 and pT821); details: DLBCL cell lines; 24 hr treatment
# Protocol: For SDS-PAGE, total cell lysates were obtained using NP-40 lysis buffer (Tris-HCl 50 mM pH7.4, NaCl 150 mM, NaF 5 mM, EDTA 5 mM, 1% NP-40) supplemented with 1 mM activated Na3VO4 and complete proteinase inhibitor cocktail (Roche). […] After washing, membranes were probed against the indicated antigens following the manufacturer's recommendation. […] For chemoluminescence detection, enhanced ECL (GE Healthcare, Piscataway, N.J.) was used. After stripping, membranes were re-probed for GAPDH (1:3000, Santa Cruz Biotechnology) as loading control.
smiles,measurement,setting,value
CN1CC[C@H](c2c(O)cc(O)c3c(=O)cc(-c4ccccc4Cl)oc23)[C@H](O)C1 [flavopiridol],"cell cycle (S phase, arrest)",DLBCL cell lines [1],decreased S phase and induced cell cycle arrest
same,apoptosis,DLBCL cell lines [2],increased apoptosis
same,sensitivity of proliferation to lower doses,"DLBCL cell lines [3]; DHL7, DLBCL cell line with single copy RB1 loss, lower doses",less sensitive
same,cellular proliferation,"DLBCL cell lines [3]; DLBCL cell lines with decreased or absent p53 activity and CNAs of cell cycle components, nanomolar doses, 1-4 days",decreased the cellular proliferation
same,lymphoma infiltration of bone marrow and spleen,[4],significantly reduced
same,tumor growth,[4]; bioluminescence,significantly reduced tumor growth
same,phosphorylation of RB1 at CDK4/6 and CDK2-specific sites (pS780 and pT821),[5],decreased the phosphorylation of RB1
